This note sets out measurements from patent US20170253581A1, “SUBSTITUTED HETEROCYCLES AS c-MYC TARGETING AGENTS” (Northwestern University, priority 2016, published 2017).

In this experiment the target is Myc/Max binding to DNA (Homo sapiens, UniProt P01106). In words: Electrophoretic mobility shift assay (EMSA) of Myc/Max binding to DNA. The note with it: EMSA; for remaining activity at 100 µM / Bound DNA (%) (100uM): 100 uM test compound; for remaining activity at 100 µM: read-out: Bound DNA (%) (100uM); for remaining activity at 50 µM: 50 uM test compound, read-out: Bound DNA (%) (50uM). In kind it is biochemical. On the procedure:
We also tested our best hit compound Min9 (NUCC-0176234) and newly synthesized analogs for effects of these compounds on Myc/Max binding to DNA in electrophoretic mobility shift assays (EMSAs). (See FIG. 5a and FIG. 5b). We expected the active compounds to impair Myc/Max binding to DNA. Several strucutural analogs of Min9 were tested over multiple doses for inhibiting Myc-DNA binding and we observed a dose-dependent inhibition. (See FIG. 5c).
Additional compounds were synthesized and tested in the EMSA assay at concentrations of 200 μM, 100 μM, and 50 μM.

Myc/Max binding to DNA, sequence (P01106 whole entry): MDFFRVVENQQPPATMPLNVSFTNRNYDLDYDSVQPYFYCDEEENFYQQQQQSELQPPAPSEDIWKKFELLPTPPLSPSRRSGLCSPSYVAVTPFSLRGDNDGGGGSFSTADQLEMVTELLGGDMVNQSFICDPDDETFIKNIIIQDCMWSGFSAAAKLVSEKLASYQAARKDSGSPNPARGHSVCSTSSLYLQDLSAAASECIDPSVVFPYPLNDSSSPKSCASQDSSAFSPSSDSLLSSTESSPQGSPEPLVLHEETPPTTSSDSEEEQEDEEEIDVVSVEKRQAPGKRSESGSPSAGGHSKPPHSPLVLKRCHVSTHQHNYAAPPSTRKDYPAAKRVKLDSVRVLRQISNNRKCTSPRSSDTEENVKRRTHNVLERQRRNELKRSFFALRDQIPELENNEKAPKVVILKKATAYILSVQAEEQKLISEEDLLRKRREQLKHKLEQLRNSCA

On to `N#Cc1cccc(-c2c(-c3ccc(OCc4ccc(Cl)cc4)cc3O)n[nH]c2C(F)(F)F)c1` [compound 0198398], for which the remaining activity at 100 µM was found to be 3%.

Consider `Cn1nc(C(F)(F)F)c(-c2cccc(C#N)c2)c1-c1ccc(OCc2ccc(Cl)cc2)cc1O` [compound 0198399], for which the remaining activity at 100 µM is 2%. Take `Cn1nc(-c2ccc(OCc3ccc(Cl)cc3)cc2O)c(-c2cccc(C#N)c2)c1C(F)(F)F` [compound 0198400]: the remaining activity at 100 µM came out at 48%. As to `NC(=O)c1cccc(-c2c(-c3ccc(OCc4ccc(Cl)cc4)cc3O)n[nH]c2C(F)(F)F)c1` [compound 0198401], the remaining activity at 100 µM came to 77%. In the case of `Cn1nc(C(F)(F)F)c(-c2cccc(C(N)=O)c2)c1-c1ccc(OCc2ccc(Cl)cc2)cc1O` [compound 0198402], the remaining activity at 100 µM stood at 57%. `C/C(=N\N)c1cccc(-c2c(-c3ccc(OCc4ccc(Cl)cc4)cc3O)n[nH]c2C(F)(F)F)c1` [compound 0198403]: the remaining activity at 100 µM came to 44%. On to `CN/N=C(\C)c1cccc(-c2c(C(F)(F)F)nn(C)c2-c2ccc(OCc3ccc(Cl)cc3)cc2O)c1` [compound 0198404], for which the remaining activity at 100 µM came out at 67%.

Consider `CN/N=C(\C)c1cccc(-c2c(-c3ccc(OCc4ccc(Cl)cc4)cc3O)nn(C)c2C(F)(F)F)c1` [compound 0198405], for which the remaining activity at 100 µM was 89%. Regarding `CCc1ccc(Oc2c(-c3ccc(O)cc3O)n[nH]c2C(F)(F)F)cc1` [compound 0198406], the remaining activity at 100 µM worked out at 0%. Take `Cn1nc(C(F)(F)F)c(Br)c1-c1ccc(OCc2ccc(Cl)cc2)cc1O` [compound 0198407]: the remaining activity at 100 µM is 13%. `Cn1nc(-c2ccc(OCc3ccc(Cl)cc3)cc2O)c(Br)c1C(F)(F)F` [compound 0198408]: the remaining activity at 100 µM was 136%. In the case of `Cn1nc(C(F)(F)F)c(-c2ccc(C(N)=O)cc2)c1-c1ccc(OCc2ccc(Cl)cc2)cc1O` [compound 0198409], the remaining activity at 100 µM was determined as 69%.

For `Cn1nc(C(F)(F)F)c(-c2ccccc2OC(F)(F)F)c1-c1ccc(OCc2ccc(Cl)cc2)cc1O` [compound 0198410], the remaining activity at 100 µM worked out at 44%. As for `CCc1ccc(Oc2c(-c3ccc(O)cc3O)nn(C)c2C(F)(F)F)cc1` [compound 0198411], the “Bound DNA (%) (100uM)” value is 30%.

As to `Cn1nc(C(F)(F)F)cc1-c1ccc(OCc2ccc(Cl)cc2)cc1O` [compound 0198412], the remaining activity at 100 µM worked out at 91%. As for `CCOC(=O)c1[nH]nc(-c2ccc(OCc3ccc(Cl)cc3)cc2O)c1-c1ccc(C#N)cc1` [compound 0200489], the remaining activity at 50 µM came out at 99% and the remaining activity at 100 µM was 100%. In the same order, the values of `Oc1cc(OCc2ccc(Cl)cc2)ccc1-c1n[nH]c(C(F)(F)F)c1Cc1ccccc1Cl` [compound 0200490] are 97% and 99%. `Oc1cc(Nc2ccc(Cl)cc2)ccc1-c1cc(C(F)(F)F)[nH]n1` [compound 0200491]: the remaining activity at 50 µM came out at 73% and the “Bound DNA (%) (100uM)” value is given as 0%.

Regarding `Cn1nc(-c2ccc(Nc3ccc(Cl)cc3)cc2O)cc1C(F)(F)F` [compound 0200492], the remaining activity at 50 µM was determined as 92% and the remaining activity at 100 µM was found to be 24%.

As to `Oc1cc(NCc2ccc(Cl)cc2)ccc1-c1cc(C(F)(F)F)[nH]n1` [compound 0200493], the remaining activity at 50 µM was 92% and the remaining activity at 100 µM is 42%. Turning to `Cn1nc(-c2ccc(NCc3ccc(Cl)cc3)cc2O)cc1C(F)(F)F` [compound 0200494], the remaining activity at 50 µM was 99% and the remaining activity at 100 µM came to 89%.

On to `Oc1ccc(-c2n[nH]c(C(F)(F)F)c2-c2cc(C(F)(F)F)cc(C(F)(F)F)c2)c(O)c1` [compound 0200495], for which the remaining activity at 50 µM was determined as 86% and the remaining activity at 100 µM was 8%.

As to `COc1ccc(-c2c(-c3ccc(O)cc3O)n[nH]c2C(F)(F)F)cc1OC` [compound 0200496], the remaining activity at 50 µM worked out at 98% and the remaining activity at 100 µM is 81%. The corresponding values for `Nc1ccc(-c2cc(C(F)(F)F)[nH]n2)c(O)c1` [compound 0200497] are 107% and 109%. Take `Cn1nc(-c2ccc(N)cc2O)cc1C(F)(F)F` [compound 0200498]: the remaining activity at 50 µM is 100% and the remaining activity at 100 µM was found to be 101%. Turning to `Oc1cc(OCc2ccc(Cl)cc2)ccc1-c1cc(C(F)(F)F)n(Cc2ccccc2)n1` [compound 0200499], the remaining activity at 50 µM was determined as 109% and the remaining activity at 100 µM amounted to 100%.

As for `Oc1cc(OCc2ccc(Cl)cc2)ccc1-c1cc(C(F)(F)F)nc(-c2cccc(C(F)(F)F)c2)n1` [compound 0200500], the remaining activity at 50 µM was 100% and the remaining activity at 100 µM worked out at 109%. For `Oc1cc(OCc2ccc(Cl)cc2)ccc1-c1cc(C(F)(F)F)nc(-c2cc(C(F)(F)F)cc(C(F)(F)F)c2)n1` [compound 0200501], the remaining activity at 50 µM amounted to 91% and the remaining activity at 100 µM is 79%.

On to `Nc1nc(-c2ccc(OCc3ccc(Cl)cc3)cc2O)cc(C(F)(F)F)n1` [compound 0200502], for which the remaining activity at 50 µM stood at 64% and the remaining activity at 100 µM came out at 94%. On to `Oc1cc(OCc2ccc(Cl)cc2)ccc1-c1cc(C(F)(F)F)nc(-c2ccc(F)cc2)n1` [compound 0200503], for which the remaining activity at 50 µM was determined as 89% and the remaining activity at 100 µM was 91%.

As for `N#Cc1cccc(-c2c(-c3ccc(OCc4ccc(Cl)cc4)cc3O)n[nH]c2C(N)=O)c1` [compound 0200557], the remaining activity at 50 µM was found to be 46% and the remaining activity at 100 µM amounted to 53%. As to `Cn1nc(-c2ccc(OCc3ccc(Cl)cc3)cc2O)c(-c2cccc(C#N)c2)c1C(N)=O` [compound 0200558], the remaining activity at 50 µM was determined as 20% and the remaining activity at 100 µM was 9%. Regarding `Oc1cc(Nc2ccc(F)c(F)c2)ccc1-c1cc(C(F)(F)F)[nH]n1` [compound 0200559], the remaining activity at 50 µM came to 76% and the remaining activity at 100 µM amounted to 39%. Consider `Cn1nc(-c2ccc(Nc3ccc(F)c(F)c3)cc2O)cc1C(F)(F)F` [compound 0200560], for which the remaining activity at 50 µM worked out at 91% and the remaining activity at 100 µM was 56%. For the compound `Oc1cc(Nc2ccc3c(c2)OCO3)ccc1-c1cc(C(F)(F)F)[nH]n1` [compound 0200561], the remaining activity at 50 µM stood at 91% and the remaining activity at 100 µM stood at 59%. On to `Cn1nc(-c2ccc(Nc3ccc4c(c3)OCO4)cc2O)cc1C(F)(F)F` [compound 0200562], for which the remaining activity at 50 µM worked out at 101% and the remaining activity at 100 µM is 77%. The corresponding values for `NC(=O)c1ccc(Nc2ccc(-c3cc(C(F)(F)F)[nH]n3)c(O)c2)cc1` [compound 0200563] are 101% and 92%. In the same order, the values of `Cn1nc(-c2ccc(Nc3ccc(C(N)=O)cc3)cc2O)cc1C(F)(F)F` [compound 0200564] are 103% and 93%. `Oc1cc(Nc2ccccn2)ccc1-c1cc(C(F)(F)F)[nH]n1` [compound 0200565]: the remaining activity at 50 µM came to 112% and the remaining activity at 100 µM came to 112%. For the compound `Cn1nc(-c2ccc(Nc3ccccn3)cc2O)cc1C(F)(F)F` [compound 0200566], the remaining activity at 50 µM turned out to be 109% and the remaining activity at 100 µM was 118%. As to `CN1CCN(c2ccc(-c3cc(C(F)(F)F)[nH]n3)c(O)c2)CC1` [compound 0200567], the remaining activity at 50 µM stood at 117% and the remaining activity at 100 µM came out at 115%.

As for `CN1CCN(c2ccc(-c3cc(C(F)(F)F)n(C)n3)c(O)c2)CC1` [compound 0200568], the remaining activity at 50 µM is 109% and the remaining activity at 100 µM was 93%. On to `Oc1cc(Nc2ccc(-n3ccnc3)cc2)ccc1-c1cc(C(F)(F)F)[nH]n1` [compound 0200569], for which the remaining activity at 50 µM was 89% and the remaining activity at 100 µM came to 91%. As to `Oc1cccc(OCc2ccc(Cl)cc2)c1-c1cc(C(F)(F)F)n[nH]1` [compound 0200570], the remaining activity at 50 µM is 85% and the remaining activity at 100 µM was 83%.

With `N#Cc1cccc(-c2c(C(F)(F)F)n[nH]c2-c2cc(OCc3ccc(Cl)cc3)ccc2O)c1` [compound 0200571], the remaining activity at 50 µM was determined as 87% and the remaining activity at 100 µM was 72%.

As for `Cc1ccc(-c2c(C(F)(F)F)n[nH]c2-c2cc(OCc3ccc(Cl)cc3)ccc2O)cc1` [compound 0200572], the remaining activity at 50 µM was 85% and the remaining activity at 100 µM stood at 78%. Turning to `Oc1ccc(OCc2ccc(Cl)cc2)cc1-c1cc(C(F)(F)F)n[nH]1` [compound 0200573], the remaining activity at 100 µM was determined as 102%. Still for that read-out and setting: the figure for `Oc1ccccc1-c1cc(C(F)(F)F)n[nH]1` [compound 0200574] is 107%; for `Oc1ccc(OCc2ccc(Cl)cc2)cc1-c1[nH]nc(C(F)(F)F)c1-c1ccc(F)cc1` [compound 0200575] it is 13%. For the compound `Oc1ccc(OCc2ccc(Cl)cc2)cc1-c1[nH]nc(C(F)(F)F)c1-c1ccccc1Cl` [compound 0200576], the remaining activity at 100 µM was 3%. In the case of `FC(F)(F)c1cc2n(n1)-c1ccccc1Oc1cc(OCc3ccc(Cl)cc3)ccc1-2` [compound 0200577], the remaining activity at 100 µM was 100%.

For the compound `NC(=O)c1cc(-c2ccc(Nc3ccc(Cl)cc3)cc2O)n[nH]1` [compound 0200677], the remaining activity at 100 µM stood at 102%. Consider `N#Cc1cc(-c2ccc(Nc3ccc(Cl)cc3)cc2O)n[nH]1` [compound 0200678], for which the remaining activity at 100 µM was 104%.
